From US20190085024A1, “Alpha-Ketoamide Inhibitors Of Cysteine Proteases” (Phelix Therapeutics, priority 2017, published 2019) come the findings set out here.

Like-named read-outs stand apart in the source and are kept apart here. Bounds are passed on as bounds.

In one experiment the target is Cathepsin L (Homo sapiens, UniProt P07711). The experiment can be described thus: Cathepsin L enzyme assay. The experiment is classed as biochemical. Particulars: Ki by Morrison equation; pH 5.5, substrate Z-Phe-Arg-Amc; read-out: Cat L. The text has this: Two wells contained DMSO only for controls.
Chain of Cathepsin L (P07711 114-333, species assumed): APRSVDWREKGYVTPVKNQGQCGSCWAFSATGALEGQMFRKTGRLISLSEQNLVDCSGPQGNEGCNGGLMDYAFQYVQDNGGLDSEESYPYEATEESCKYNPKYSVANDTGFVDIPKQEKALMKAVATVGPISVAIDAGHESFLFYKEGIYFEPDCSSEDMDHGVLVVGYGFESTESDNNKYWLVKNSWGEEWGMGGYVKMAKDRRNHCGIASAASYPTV
Velocity was converted to μM/sec.

The target of another experiment is Cat S (Homo sapiens, UniProt P25774). Put plainly: Cat S inhibition. The experiment is classed as biochemical.
Chain of Cat S (P25774 115-331): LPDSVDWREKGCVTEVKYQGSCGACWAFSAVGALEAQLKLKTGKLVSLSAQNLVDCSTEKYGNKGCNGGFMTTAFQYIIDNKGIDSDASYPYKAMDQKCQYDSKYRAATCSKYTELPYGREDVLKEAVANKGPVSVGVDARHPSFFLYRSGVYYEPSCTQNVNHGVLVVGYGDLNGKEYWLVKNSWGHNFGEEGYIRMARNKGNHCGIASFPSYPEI
A further experiment has as its system MERS WT. Put plainly: microbe, parasite or virus in culture. Type of experiment: cell-based.
The target of a further experiment is Calpain. Put plainly: Calpain enzyme assay. The settings on record: Ki by Morrison equation; pH 7.5, 5 mM CaCl2. The experiment is classed as biochemical.
The target in a further experiment is Cathepsin B (Homo sapiens, UniProt P07858). The experiment can be described thus: Cathepsin B enzyme assay. Particulars: Cat B (μM), Ki by Morrison equation; pH 6.0, substrate Z-Phe-Arg-Amc.
Experiment [1] relates to MARV WT (Marburg Wild Type). Put plainly: organism not typed. Type of experiment: cell-based. The settings on record: read-out: MARV WT (μM) (Marburg Wild Type).
For experiment [2], the system named is EBOV WT (Ebola Wild Type). Put plainly: microbe, parasite or virus in culture. Type of experiment: cell-based. Particulars: read-out: EBOV WT (μM) (Ebola Wild Type).
The next experiment has as its target T1, Cat K (Homo sapiens, UniProt P43235).
T1 sequence (P43235 115-329): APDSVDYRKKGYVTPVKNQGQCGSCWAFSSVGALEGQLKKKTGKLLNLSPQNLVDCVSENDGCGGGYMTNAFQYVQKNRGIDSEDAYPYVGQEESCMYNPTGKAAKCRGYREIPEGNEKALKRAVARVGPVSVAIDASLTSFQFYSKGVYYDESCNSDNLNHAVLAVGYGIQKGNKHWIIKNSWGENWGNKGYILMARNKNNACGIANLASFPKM
The experiment can be described thus: Cat K inhibition. Type of experiment: biochemical.

Another experiment concerns SMA. The experiment can be described thus: Fibrosis-SMA Elisa. Type of experiment: cell-based.
For the next experiment, the system named is Collagen. Put plainly: Fibrosis-Sirius Red Collagen Assay. Type of experiment: cell-based.
Where [3] appears, read: Middle East respiratory syndrome-related coronavirus, read-out: MERS WT (μM).

For the compound `CC(C)CC(NC(=O)OCc1ccccc1)C(=O)NC(C)C(=O)C(=O)NCC(=O)NC(Cc1ccc2ccccc2c1)C(N)=O` (stereo not drawn) [PHELIX184, benzyl (1-((4-((2-((1-amino-3-(naphthalen-2-yl)-1-oxopropan-2-yl)amino)-2-oxoethyl)amino)-3,4-dioxobutan-2-yl)amino)-4-methyl-1-oxopentan-2-yl)carbamate], the Ki on Cathepsin L came to 4.85 nM; at Cat S it was 1 nM; at Calpain, 10.3 nM; on Cathepsin B it was 0.641 µM; on Cat K, 0.5 nM. Moreover, the IC50 amounted to 7.2 µM with MERS WT (setting [3]), 3.34 µM in [1] and 1.87 µM in [2] (Zaire ebolavirus).
For the compound `CC(C)CC(NC(=O)OCc1ccccc1)C(=O)NC(C)C(=O)C(=O)N1CC(C(=O)NC(Cc2ccccc2)C(N)=O)C1` (stereo not drawn) [PHELIX187, benzyl (1-((4-(3-((1-amino-1-oxo-3-phenylpropan-2-yl)carbamoyl)azetidin-1-yl)-3,4-dioxobutan-2-yl)amino)-4-methyl-1-oxopentan-2-yl)carbamate], the Ki on Cathepsin L was found to be 53.6 nM; at Cat S, 2.04 nM; at Calpain it was 45.5 nM; on Cathepsin B it was 0.0479 µM; on Cat K, 3.8 nM. Besides, the IC50 in the experiment on MERS WT (setting [3]) was determined as 56 µM; in experiment [1] it was 13.5 µM; in [2] (Zaire ebolavirus) it was 3.66 µM.
Consider `CC[C@H](C)[C@H](NC(=O)C(=O)C(Cc1ccccc1)NC(=O)C(Cc1ccccc1)NC(=O)Cc1ccccc1)C(=O)N1CCCC1C(N)=O` (stereo partly drawn) [PHELIX204, 1-((2-oxo-4-phenyl-3-(3-phenyl-2-(2-phenylacetamido)propanamido)butanoyl)isoleucyl)pyrrolidine-2-carboxamide], for which the Ki on Cathepsin L stood at 0.01 nM; on Cat S it was 0.44 nM; on Calpain, 204 nM; at Cathepsin B it was 0.277 µM; on Cat K, 9.3 nM. Also, the figures for the IC50 (with MERS WT (setting [3]); in [1]; in experiment [2] (Zaire ebolavirus)) were 1.8 µM, 0.42 µM and 0.13 µM, respectively.
In the case of `CC(NC(=O)C(Cc1ccc2ccccc2c1)NC(=O)Cc1ccccc1)C(=O)C(=O)NC(Cc1ccccc1)C(=O)NC(C)(C)C(N)=O` (stereo not drawn) [PHELIX206, N-(1-((1-amino-2-methyl-1-oxopropan-2-yl)amino)-1-oxo-3-phenylpropan-2-yl)-3-(3-(naphthalen-2-yl)-2-(2-phenylacetamido)propanamido)-2-oxobutanamide], the Ki was 6.52 nM at Cathepsin L; 3.96 nM at Cat S; over 10000 nM on Calpain; 0.12 µM at Cathepsin B; over 10000 nM on Cat K. The results for the IC50 (in the experiment with MERS WT (setting [3]); in experiment [1]; in experiment [2] (Zaire ebolavirus)) were 12.6 µM, 4.68 µM and 2.51 µM, respectively.
For `CC(NC(=O)C(Cc1ccccc1)NC(=O)Cc1ccccc1)C(=O)C(=O)NC(Cc1ccccc1)C(=O)NC(Cc1ccc2ccccc2c1)C(N)=O` (stereo not drawn) [PHELIX215, N-(1-((1-amino-3-(naphthalen-2-yl)-1-oxopropan-2-yl)amino)-1-oxo-3-phenylpropan-2-yl)-2-oxo-3-(3-phenyl-2-(2-phenylacetamido)propanamido)butanamide], the Ki was 0.18 nM on Cathepsin L; 0.48 nM on Cat S; over 10000 nM at Calpain; 9.24 µM at Cathepsin B; 22.2 nM on Cat K. Moreover, the IC50 was determined as 0.99 µM in the experiment on MERS WT (read-out: MERS WT), 0.16 µM in experiment [1] and 0.02 µM in experiment [2].
Consider `CCC(C)C(NC(=O)C(CC(C)C)NC(=O)OCc1ccccc1)C(=O)C(=O)N1CC(C(=O)NC(Cc2ccc3ccccc3c2)C(N)=O)C1` (stereo not drawn) [PHELIX297, benzyl (1-((1-(3-((1-amino-3-(naphthalen-2-yl)-1-oxopropan-2-yl)carbamoyl)azetidin-1-yl)-4-methyl-1,2-dioxohexan-3-yl)amino)-4-methyl-1-oxopentan-2-yl)carbamate], for which the Ki at Cathepsin L amounted to 42.4 nM; on Calpain, 39.9 nM; at Cathepsin B, 0.235 µM. For the same compound, the IC50 in the experiment with SMA came out at 3400 nM; in the experiment with Collagen, 3800 nM.
In the case of `CCC(C)C(NC(=O)C(CC(C)C)NC(=O)OCc1ccccc1)C(=O)C(=O)NC(Cc1ccc2ccccc2c1)C(N)=O` (stereo not drawn) [PHELIX309, benzyl (1-((1-((1-amino-3-(naphthalen-2-yl)-1-oxopropan-2-yl)amino)-4-methyl-1,2-dioxohexan-3-yl)amino)-4-methyl-1-oxopentan-2-yl)carbamate], the Ki was 9.76 nM on Cathepsin L, 1.34 nM at Calpain and over 10 µM at Cathepsin B. Besides, the IC50 in the experiment with SMA was found to be 2000 nM; in the experiment on Collagen, 2700 nM.
For the compound `CCC(C)C(NC(=O)C(CC(C)C)NC(=O)CN1CCOCC1)C(=O)C(=O)NCC(=O)NC(Cc1ccc2ccccc2c1)C(N)=O` (stereo not drawn) [PHELIX314, N-(2-((1-amino-3-(naphthalen-2-yl)-1-oxopropan-2-yl)amino)-2-oxoethyl)-4-methyl-3-(4-methyl-2-(2-morpholinoacetamido)pentanamido)-2-oxohexanamide], the Ki on Cathepsin L is 3.06 nM; on Calpain, 2.44 nM; at Cathepsin B, 0.387 µM. The IC50 in the experiment on SMA came to 1200 nM.
